Earlier results in patent US20230159622A1, “COLLAGEN MIMICS” (Wisconsin Alumni Research Foundation, priority 2006, published 2023).
Marks after values point to notes of the source that are not given here.

Conditions: based on the extrapolation of data from solutions containing trimethylamine N-oxide; literature reference

(Pro-Pro-Gly)7
Tm (±1° C.) of triple helix, based on extrapolation: −6^a ° C.
